The source of these data is patent US20230391760A1, “HETEROCYCLIC GLP-1 AGONISTS” (Gasherbrum Bio, Inc., priority 2020, published 2023).

pEC50: −log10 of the molar value.

This assay deals with GLP-1 Receptor (Homo sapiens, UniProt P43220). The assay can be described thus: GLP-1R agonist cAMP stimulation assay (HEK293/GLP1R/CRE-LUC cells, cAMP dynamic 2 Kit). The format is cell-based. Particulars: HEK293/CRE-Luc cell line stably expressing the GLP-1 Receptor, 30 min at 37° C. The protocol: Activation of GLP-1 receptor is known to stimulate cyclic AMP (cAMP) production in cells which indicates primary coupling to the Gαs subunit of the G protein heterotrimeric complex. […] To optimize functional activity directed toward Gαs coupling, a HEK293/CRE-Luc cell line developed by HDB stably expressing the GLP-1 Receptor was used. 200×concentration of compound working solutions were prepared (Agilent Technologies Bravo) with 1/2 log serial dilution in 384-well Echo LDV plate (Labcyte, Cat #LP-0200). 50 nL/well 200× concentration of compound working solutions were moved to 384-well white low volume plate (Greiner,Cat #784075) using Labcyte ECHO550. 1×10^5 cells/mL HEK293/GLP1R/CRE-LUC(HD Biosciences) cell suspensions prepared with assay buffer[DPBS containing 0.5 mM IBMX(Sigma, Cat #15879) and 0.1% BSA (GENVIEW, Cat #FA016-100 g)], 10 uL cell suspensions were added to each well of previous generated assay plate which already contains 50 nl compound at 200×concentration using ThermoFisher Multidrop Combi (1000 cells/well). Seal the plate and incubate at 37° C. with 5% CO2 for 30 min. After incubation the cAMP assay signal was generated using cAMP dynamic 2 Kit (Cisbio). 5 μL cAMP-d2 working solution was added to each well, followed with 5 μL Anti-cAMP antibody-cryptate working solution added to each well using ThermoFisher Multidrop Combi. Incubate at room temperature for 1 hour protected from light.
GLP-1 Receptor, sequence (P43220 24-463, species assumed): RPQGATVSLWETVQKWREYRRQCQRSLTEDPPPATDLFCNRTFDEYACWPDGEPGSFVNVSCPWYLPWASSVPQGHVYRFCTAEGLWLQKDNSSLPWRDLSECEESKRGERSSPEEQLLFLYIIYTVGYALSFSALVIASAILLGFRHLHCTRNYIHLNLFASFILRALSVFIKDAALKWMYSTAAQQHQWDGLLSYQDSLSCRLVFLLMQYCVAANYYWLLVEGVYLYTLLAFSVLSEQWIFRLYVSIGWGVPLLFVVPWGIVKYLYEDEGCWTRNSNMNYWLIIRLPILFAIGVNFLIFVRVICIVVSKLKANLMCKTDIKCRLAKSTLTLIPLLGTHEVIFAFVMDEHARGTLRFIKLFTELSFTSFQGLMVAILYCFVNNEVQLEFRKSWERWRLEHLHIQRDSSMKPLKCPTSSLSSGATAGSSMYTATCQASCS
`O=C(Nc1ccc2c(c1)nc(CN1CCC(c3cccc(OCc4ccc(Cl)cc4F)n3)CC1)n2C[C@@H]1CCO1)C1Cc2ccncc2C1` (stereo partly drawn) [Compound 180a, N-{2-[(4-{6-[(4-chloro-2-fluorophenyl)methoxy]pyridin-2-yl}piperidin-1-yl)methyl]-1-{[(2S)-oxetan-2-yl]methyl}-1H-1,3-benzodiazol-5-yl}-5H,6H,7H-cyclopenta[c]pyridine-6-carboxamide] had a pEC50 of 8.22.

Turning to `CC(=O)Nc1ccc2c(c1)nc(CN1CCC(c3cccc4c3OC(C)(c3ccc(Cl)cc3F)O4)CC1)n2C[C@@H]1CCO1` (stereo partly drawn) [Compound 240a, N-(2-((4-(2-(4-chloro-2-fluorophenyl)-2-methylbenzo[d][1,3]dioxol-4-yl)piperidin-1-yl)methyl)-1-(((S)-oxetan-2-yl)methyl)-1H-benzo[d]imidazol-5-yl)acetamide], the negative-log EC50 (pEC50) is 8.96.

`CC1(c2ccc(Cl)cc2F)Oc2cccc(C3CCN(Cc4nc5cc(-c6noc(=O)[nH]6)cnc5n4C[C@H]4CCOC4)CC3)c2O1` (stereo partly drawn) [Compound 400a, 3-[2-({4-[2-(4-chloro-2-fluorophenyl)-2-methyl-2H-1,3-benzodioxol-4-yl]piperidin-1-yl}methyl)-3-{[(3R)-oxolan-3-yl]methyl}-3H-imidazo[4,5-b]pyridin-6-yl]-4,5-dihydro-1,2,4-oxadiazol-5-one] had a pEC50 of 8.43.

`N#Cc1ccc(COc2cccc(C3=CCN(Cc4nc5cc(-c6nnc(C(F)(F)F)[nH]6)cnc5n4C[C@@H]4CCO4)CC3)n2)c(F)c1` [Compound 321a, 3-fluoro-4-[({1′-[(3-{[(2S)-oxetan-2-yl]methyl}-6-[5-(trifluoromethyl)-4H-1,2,4-triazol-3-yl]-3H-imidazo[4,5-b]pyridin-2-yl)methyl]-1′,2′,3′,6′-tetrahydro-[2,4′-bipyridin]-6-yl}oxy)methyl]benzonitrile] showed a pEC50 of 10.66.

Consider `CC1(c2ccc(Cl)cc2F)Oc2cccc(C3CCN(Cc4nc5cc(-c6nnc(C(F)(F)F)[nH]6)ccc5n4C[C@@H]4CCO4)CC3)c2O1` (single isomer, unassigned) [Compound 229c], for which the pEC50 is 10.40.

As to `CC1(c2ccc(Cl)cn2)Oc2cccc(C3CCN(Cc4nc5cc(-c6noc(=O)[nH]6)ncc5n4C[C@@H]4CCO4)CC3)c2O1` (stereo partly drawn) [Compound 343a, 3-[2-({4-[2-(5-chloropyridin-2-yl)-2-methyl-2H-1,3-benzodioxol-4-yl]piperidin-1-yl}methyl)-3-{[(2S)-oxetan-2-yl]methyl}-3H-imidazo[4,5-c]pyridin-6-yl]-4,5-dihydro-1,2,4-oxadiazol-5-one], the pEC50 is 10.10. This pEC50 is 0.30 log units lower than that of the compound before.

In turn, `O=C(Nc1ccc2c(c1)nc(CN1CCC(c3cccc(OCc4ccc(Cl)cc4F)n3)CC1)n2C[C@@H]1CCO1)N1CCC(F)(F)C1` [Compound 205a, N-{2-[(4-{6-[(4-chloro-2-fluorophenyl)methoxy]pyridin-2-yl}piperidin-1-yl)methyl]-1-{[(2S)-oxetan-2-yl]methyl}-1H-1,3-benzodiazol-5-yl}-3,3-difluoropyrrolidine-1-carboxamide] gave a negative logarithm of the EC50 (pEC50) of 8.55. Compared with the last compound, the pEC50 is 1.55 log units lower.

In the case of `O=S1(=O)CCCN1c1ccc2c(c1)nc(CN1CCC(c3cccc(OCc4ccc(Cl)cc4F)n3)CC1)n2C[C@@H]1CCO1` [Compound 118a, (S)-2-(2-((4-(6-((4-chloro-2-fluorobenzyl)oxy)pyridin-2-yl)piperidin-1-yl)methyl)-1-(oxetan-2-ylmethyl)-1H-benzo[d]imidazol-5-yl)isothiazolidine 1,1-dioxide], the pEC50 is 8.00. Compared with the last compound, the pEC50 is 0.55 log units lower.

As to `C[C@H]1CN(c2ccc(F)c(OCc3ccc(C#N)cc3F)c2)CCN1Cc1nc2cc(-c3nnc(C(F)(F)F)[nH]3)ncc2n1C[C@@H]1CCO1` [Compound 506a, 3-fluoro-4-({2-fluoro-5-[(3S)-3-methyl-4-[(3-{[(2S)-oxetan-2-yl]methyl}-6-[5-(trifluoromethyl)-4H-1,2,4-triazol-3-yl]-3H-imidazo[4,5-c]pyridin-2-yl)methyl]piperazin-1-yl]phenoxy}methyl)benzonitrile], the pEC50 is 10.12.

Broadly, the pEC50 is the EC50 on a negative log10 scale, so that one unit is a factor of ten. Low readings indicate a large EC50, high ones a small EC50.
